Results reported in patent publication US8097404B2, “Composition and method for cell permeabilization comprising N-octyl-β-D-glucopyranoside, sodium polyphosphates, rubidium chloride and/or lithium chloride for detecting living cells on a membrane” (Millipore Corporation, priority 2008, dated 2012).

System: S. aureus (Gram-positive bacterium) ATCC 6538
Assay: Fluorescence detection of microcolonies on membrane after permeabilization and 5/6-CFDA labeling
Type: cell-based
Conditions: agent used alone
Protocol: The tested strains of E. coli (Gram-negative bacterium) ATCC 8739 and of S. aureus (Gram-positive bacterium) ATCC 6538 or B. subtilis (Gram-positive bacterium) ATCC 6633 were preserved in cryotubes (Dutscher, ref. 028049) frozen at −80° C. prepared from freeze-dried strains obtained from collections.
For all the tests, the bacteria strains are diluted in tubes of peptone water (Biomérieux, ref. 42111). A cascade dilution is performed by adding 1 ml of the cryotube of the strain used to 9 ml of the tube of peptone water until the desired dilution is obtained. The concentration was adjusted in order to obtain on average 30 bacteria per sample. This concentration was verified on a Petri dish by a conventional count test on agar medium. […]
A universal fluorogenic marker, namely 5/6-carboxyfluorescein diacetate (CFDA) (Sigma 21879-100MG) diluted in DMSO, is added to the permeabilization compositions in order to reach a final concentration of 100 μg/ml. […] The membrane is then removed from the labeling solution and placed in an illuminator equipped with a camera in order to measure the fluorescence emitted between 520 and 530 nm.
The fluorescence intensity results summarized in Tables 1 to 3 below correspond to the light energy (luminescence) captured and recorded to the nearest pixel by the CCD camera using the Sherlock image analyzing software (Insosys Inc.). […]

CCCCCCCCO[C@@H]1O[C@H](CO)[C@@H](O)[C@H](O)[C@H]1O [N-Octyl-β-D-glucopyranoside]
Permeabilization of Gram-positive bacteria, in words: unsuitable
